The record followed here is patent US12060330B2, “Therapeutic indazoles” (priority 2017, dated 2024).

Entries after “also recorded” stand apart in the source; their conditions may differ.

The first assay relates to mycolic acid biosynthesis. It is filed as cell-based, M. tuberculosis.
Regarding `CCCCS(=O)(=O)Nc1ccc2cnn(C)c2c1` [DG167, N-(1-methyl-1H-indazol-6-yl)butane-1-sulfonamide], the “inhibition of mycolic acid biosynthesis” value is listed as “dose-dependent inhibition; also recorded: resistant to DG167-mediated inhibition of mycolic acid biosynthesis”.

The next assay relates to DG167-resistant M. tuberculosis mutants. It is filed as cell-based.
As for `COc1nc2ccc(Br)cc2cc1[C@@H](c1ccccc1)[C@@](O)(CCN(C)C)c1cccc2ccccc12` [BDQ, bedaquiline], the “susceptibility of DG167-resistant mutants” value (shortened to “susceptibility”) is on record as “remained susceptible”.

Consider `CC[C@@H](CO)NCCN[C@@H](CC)CO` [EMB, ethambutol], for which the “susceptibility” value is “remained susceptible”.

For the molecule `CCc1cc(C(N)=S)ccn1` [ETH, ethionamide], the “susceptibility” value is “remained susceptible”.

Take `NNC(=O)c1ccncc1` [INH, isoniazid, reference compound]: the “susceptibility” value is “remained susceptible”. With `O=[N+]([O-])c1cn2c(n1)OC[C@@H](OCc1ccc(OC(F)(F)F)cc1)C2` [PA824], the “susceptibility” value was “remained susceptible”. Still for that read-out and setting: with `CC(C)=CCC/C(C)=C/CNCCNC1C2CC3CC(C2)CC1C3` (stereo not shown) [SQ109] the entry was “remained susceptible”.
